Results published in patent US10166246B2, “TGR5 agonist complexes for treating diabetes and cancer” (City of Hope, priority 2014, dated 2019).
Entries after “also recorded” stand apart in the source; their conditions may differ.

Legend:
[1] = single oral dose; cited from earlier work
[2] = molecular target: T1, TGR5 (Homo sapiens, UniProt Q8TDU6); experiment: cAMP assay in HEK293 overexpressing TGR5; format: cell-based; set-up: expressed in transfected cells; host or cells: HEK293 overexpressing TGR5; settings: HEK293 cells, in vitro
T1 sequence (Q8TDU6 1-330): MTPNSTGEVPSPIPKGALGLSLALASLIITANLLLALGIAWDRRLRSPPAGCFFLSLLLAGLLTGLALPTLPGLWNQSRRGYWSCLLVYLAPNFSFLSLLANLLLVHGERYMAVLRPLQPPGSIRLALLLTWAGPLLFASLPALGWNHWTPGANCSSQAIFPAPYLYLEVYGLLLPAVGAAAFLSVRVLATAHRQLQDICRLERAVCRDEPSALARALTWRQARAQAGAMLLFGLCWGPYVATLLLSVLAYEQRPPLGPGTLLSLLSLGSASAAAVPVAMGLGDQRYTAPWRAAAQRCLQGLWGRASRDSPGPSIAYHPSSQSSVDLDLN
Method: (§1) Data analysis to determine EC50 values was performed with GraphPad Prism software using a cAMP standard curve and sigmoidal dose-response (variable slope) equation based on dose-response curves with tested compounds.
as §1

[3] = in vivo; cited from earlier work
[4] = molecular target: T1, TGR5; settings: HEK293 cells with human TGR5, pCRE-Luc; 0.1-50 μM test concentrations
Method: HEK293 overexpressing TGR5 cells were transfected 100 ng pCRE-luc reporter along with 10 ng pCMV-beta-galactosidase by HiPerfect (Qiagen).
Complexes were evaluated for their ability to activate TGR5 at 0.1, 0.5, 1, 5.0, 10, 30, and 50 μM test concentrations.
Cell Culture: HEK293 and HEK293-TGR5 overexpressing cells were cultured in high glucose Dulbecco's modified Eagle's medium (DMEM, CELLGRO®, Manassas, Va.) with L-glutamine supplemented with 10% (vol/vol) heat-inactivated fetal bovine serum (Gemini Bio-Products, West Sacramento, Calif.). TGR5-overexpressing HEK293 cells were maintained in G418-containing media until plating. Cells were plated in 24-well plates (5×10^5 cells/well) 24 h before transfection. Prior to transfection, cells were rinsed with PBS, and media was replaced with DMEM without phenol red supplemented with 10% super-stripped FBS.
TGR5 and FXR Luciferase Assay: To evaluate TGR5 activity of compounds, cells were transfected 100 ng pCRE-luc reporter along with pCMV-galactosidase (10 ng) as an internal control for normalization of transfection efficiency. Plasmids were complexed with 2 mL of FUGENE® 6 reagent (Promega, Madison, Wis.) in OPTIMEM® (Invitrogen, Carlsbad, Calif.) and cells were transfected for 18 h. The following day, cells were treated with vehicle and appropriate ligand as indicated. […]

[5] = system: db/db mice; experiment: 5-week treatment of diabetic db/db mice (body weight, fasting glucose, liver and kidney weight, HbA1c); format: in vivo, mouse; settings: for significance of the effect in body weight loss: 30 mg/kg BW (0.057 mmol), 5 weeks
Method: FIG. 8 Effect on body weight of administration of ligand and complex administered […] for 5 weeks in db/db mice (seven per group), with vehicle controls.
For each experiment, there were 8 groups of mice representing the different treatments. […] Eleven-week old male normal and high-fat fed C57BL/6J mice and 7-week old male B6.BKS-Lepr^db (db/db) mice (The Jackson Laboratory, Bar Harbor, Me.) were acclimatized for at least one week on a 12-hour light/dark cycle at 68-72° F., then fed either a standard (10% fat kcal) or high-fat diet containing 60 kcal % fat (Research Diets, Inc., New Brunswick, N.J.) for the duration of the study. All animals were access to their respective diets and water ad libitum. […] For each group, each mouse was given the drugs via i.p. injection, three times a week (Monday, Wednesday, Friday) for a total duration of 5 weeks. Before, and in the course of treatment, body weight, water and food consumption (by weighing before and after weights of water bottles and leftover food in individual cages) were measured 2×per week, while blood glucose measurements were conducted weekly via tail-bleeding while on physical restraint using disposable cone-shaped plastic holders (Kent Scientific). Various tissues (liver, skeletal muscles and adipose tissues) and blood (for lipid, insulin and glucose measurements), were collected and analyzed at the end of the experiment. Before termination of the study, glucose tolerance tests were performed on each mouse on the last week of treatment. For the glucose tolerance test (GTT), after an overnight fast, mice were injected intraperitoneally with glucose (2 g/kg body weight). […] Mice were euthanized by CO2 asphyxiation according to the Association for Assessment and Accreditation of Laboratory Animal Care International guidelines. The different experimental groups had at least 8 animals each.

CN(C)C(=N)NC(=N)N [Metformin, N,N-dimethylbiguanidine]
time until undetectable in blood plasma [1]: ≤ 24 h | direct activation of TGR5 to induce cAMP formation [2]: not a ligand for the TGR5; also recorded: did not directly activate TGR5 | decrease of the level of HbA1c [3]: 1-2%

Metformin-OA [DY310]
potency in luciferase assays against TGR5 compared to the native TGR5 agonist [4]: greater potency in luciferase assays than oleanolic acid

metformin-6eCDCA complex [DY305]
significance of the effect in body weight loss ([5]; male db/db mice): not significant | effect on body weight ([5]; male db/db mice, daily for 5 weeks): effective in body weight loss

metformin-6eUDCA complex [DY306]
effect on increase of HbA1c ([5]; db/db mice): dose dependently blocked the increase of HbA1c | glycemic control ([5]; db/db mouse model): improved glycemic control | significance of the effect in body weight loss ([5]; male db/db mice): not significant
